Laboratory results from patent publication US8168779B2, “Anhydrous crystalline β-maltose, its preparation and uses” (priority 2006, dated 2012).

Experiments:
[1] = Powderizing test by admixing dehydrated ethanol; assay type: physicochemical; conditions: listed as Anhydrous crystalline α-maltose (Control)
Procedure: The usefulness of the crystal was judged by the amount of deionized water added to the limit of keeping the powder form. The form of the powder was evaluated by the following four phases: (1) powder; (2) lump (it keeps a powder form while it comprises lumps); (3) cake; and (4) paste. As a control, the anhydrous crystalline α-maltose used in Example 2 was treated by the same procedure. The test was carried out in a room where the temperature was kept at 25° C. The results of the test and the form of each sample after admixing with 1.25 ml of deionized water are shown in Table 7 and FIG. 15, respectively. […] The results of the test and the form of each sample after admixing with 6 ml of dehydrated ethanol are shown in Table 8 and FIG. 16, respectively.

[2] = mercury filling method
[3] = Specific surface area by nitrogen adsorption isotherms (BET); assay type: physicochemical; conditions: BET method, listed as anhydrous crystalline α-maltose of Control 2
Procedure: About 3 g of the anhydrous crystalline β-maltose, obtained in Example 1, was dried in the apparatus under a reduced pressure at about 40° C. for about 15 hours as a pretreatment, and then used for the measurement of specific surface area by the nitrogen adsorption isotherms. The result was analyzed by conventional BET (Brunnauer, Emmet, and Teller) method.

[4] = Hygroscopicity test (moisture content under controlled relative humidity); assay type: physicochemical; conditions: 27° C., listed as AC α-Mal (Control 2)
Procedure: Moisture contents of the samples at respective periods were measured based on the change of weight from the start of the test. The moisture contents of the samples at the start of the test were measured by Karl Fischer's method.

[5] = Powderizing test by admixing deionized water; assay type: physicochemical; conditions: 25° C., listed as Anhydrous crystalline α-maltose (Control)
Procedure: The usefulness of the crystal was judged by the amount of deionized water added to the limit of keeping the powder form. The form of the powder was evaluated by the following four phases: (1) powder; (2) lump (it keeps a powder form while it comprises lumps); (3) cake; and (4) paste. As a control, the anhydrous crystalline α-maltose used in Example 2 was treated by the same procedure. The test was carried out in a room where the temperature was kept at 25° C. The results of the test and the form of each sample after admixing with 1.25 ml of deionized water are shown in Table 7 and FIG. 15, respectively.

[6] = Deionized water-solidifying test (base for solidifying moisture-containing compositions); assay type: physicochemical; conditions: 25° C.; for (Appearance) / Condition: after 20 hours from the dissolution; for Time of solidification completed / Time of solidification started: monitored for 2 hours
Source text: After completing the dissolution, each test solution was further stirred for four minutes and then the stirring was stopped. Successively, each test solution was left to stand and a solidification of the test solution by the crystallization of hydrous crystalline maltose was monitored macroscopically for two hours. In the cases of the solidified samples, the time of starting the crystallization and that of completing the solidification were checked. (However, the test solution dissolving 18.8 g of crystal was stopped stirring at three minutes after the dissolution because the crystallization of hydrous crystalline maltose was started immediately.) After monitoring macroscopically for two hours, each vessel containing any one of the sample solutions was closed and further left to stand for 18 hours. Then, the condition (appearance) of the test samples after 20 hours from the dissolution was monitored macroscopically and evaluated by the following three phases: (1) clear solution; (2) clouded solution; and (3) solidified. The samples prepared by using 10.0 g, 11.5 g, 13.3 g, or 18.8 g of the anhydrous crystalline α-maltose used in Example 2, as a substitute of the test samples, were treated by the same procedure as controls. The test was carried out in a room where a temperature was kept at 25° C. The results of each sample after 2 and 20 hours are shown in Table 5 and FIG. 13, and Table 6 and FIG. 14, respectively.

[7] = control values originate from space between crystal particles, not pores
[8] = 10.0 g dissolved in 10 g deionized water (50.0%)
[9] = 10.0 g dissolved in 10 g deionized water (calc. conc. 50.0%)
[10] = 11.5 g dissolved in 10 g deionized water (53.5%)
[11] = 11.5 g dissolved in 10 g deionized water (calc. conc. 53.5%)
[12] = 13.3 g dissolved in 10 g deionized water (57.0%)
[13] = 13.3 g dissolved in 10 g deionized water (calc. conc. 57.0%)
[14] = 18.8 g dissolved in 10 g deionized water (calc. conc. 65.0%)

Compound: OC[C@H]1O[C@H](O[C@H]2[C@H](O)[C@@H](O)[C@H](O)O[C@@H]2CO)[C@H](O)[C@@H](O)[C@@H]1O [anhydrous crystalline α-maltose]
- Form of the powder after admixing dehydrated ethanol ([1]; 10 g crystal + 3.5 ml ethanol (27.5 v/w %)): Lump form
- Form of the powder after admixing dehydrated ethanol ([1]; 10 g crystal + 4.0 ml ethanol (30.5 v/w %)): Cake form
- Form of the powder after admixing dehydrated ethanol ([1]; 10 g crystal + 4.5 ml ethanol (33.3 v/w %)): Cake form
- Form of the powder after admixing dehydrated ethanol ([1]; 10 g crystal + 5.0 ml ethanol (36.0 v/w %)): Cake form
- Form of the powder after admixing dehydrated ethanol ([1]; 10 g crystal + 5.5 ml ethanol (38.5 v/w %)): Paste form
- Form of the powder after admixing dehydrated ethanol ([1]; 10 g crystal + 6.0 ml ethanol (40.9 v/w %)): Paste form
- Intrusion volume ([2]; initial pressure 15 kPa): (No pore)
- Median pore diameter [2, 7]: 13.00 μm
- Mode pore diameter [2, 7]: 20.70 μm
- Specific surface area [3]: 0.48 m^2/g
- Moisture content of samples ([4]; RH 47% (lithium nitrate), 0 hour (start, Karl Fischer)): 0.74 %, w/w
- Moisture content of samples ([4]; RH 47% (lithium nitrate), 2 hours): 0.70 %, w/w
- Moisture content of samples ([4]; RH 47% (lithium nitrate), 4 hours): 0.70 %, w/w
- Moisture content of samples ([4]; RH 47% (lithium nitrate), 24 hours): 0.65 %, w/w
- Moisture content of samples ([4]; RH 47% (lithium nitrate), 96 hours): 0.71 %, w/w
- Moisture content of samples ([4]; RH 47% (lithium nitrate), 192 hours): 0.70 %, w/w
- Moisture content of samples ([4]; RH 58% (sodium bromide), 0 hour (start, Karl Fischer)): 0.74 %, w/w
- Moisture content of samples ([4]; RH 58% (sodium bromide), 2 hours): 0.74 %, w/w
- Moisture content of samples ([4]; RH 58% (sodium bromide), 4 hours): 0.76 %, w/w
- Moisture content of samples ([4]; RH 58% (sodium bromide), 6 hours): 0.80 %, w/w
- Moisture content of samples ([4]; RH 58% (sodium bromide), 8 hours): 0.79 %, w/w
- Moisture content of samples ([4]; RH 58% (sodium bromide), 24 hours): 0.83 %, w/w
- Moisture content of samples ([4]; RH 58% (sodium bromide), 96 hours): 0.98 %, w/w
- Moisture content of samples ([4]; RH 58% (sodium bromide), 192 hours): 0.91 %, w/w
- Moisture content of samples ([4]; RH 75% (sodium chloride), 0 hour (start, Karl Fischer)): 0.74 %, w/w
- Moisture content of samples ([4]; RH 75% (sodium chloride), 2 hours): 1.18 %, w/w
- Moisture content of samples ([4]; RH 75% (sodium chloride), 4 hours): 2.44 %, w/w
- Moisture content of samples ([4]; RH 75% (sodium chloride), 6 hours): 2.88 %, w/w
- Moisture content of samples ([4]; RH 75% (sodium chloride), 8 hours): 3.14 %, w/w
- Moisture content of samples ([4]; RH 75% (sodium chloride), 24 hours): 3.84 %, w/w
- Moisture content of samples ([4]; RH 75% (sodium chloride), 96 hours): 3.85 %, w/w
- Moisture content of samples ([4]; RH 75% (sodium chloride), 192 hours): 4.49 %, w/w
- Moisture content of samples ([4]; RH 90% (barium chloride), 0 hour (start, Karl Fischer)): 0.74 %, w/w
- Moisture content of samples ([4]; RH 90% (barium chloride), 2 hours): 1.79 %, w/w
- Moisture content of samples ([4]; RH 90% (barium chloride), 4 hours): 4.30 %, w/w
- Moisture content of samples ([4]; RH 90% (barium chloride), 6 hours): 6.29 %, w/w
- Moisture content of samples ([4]; RH 90% (barium chloride), 8 hours): 7.82 %, w/w
- Moisture content of samples ([4]; RH 90% (barium chloride), 24 hours): 15.78 %, w/w
- Moisture content of samples ([4]; RH 90% (barium chloride), 96 hours): 17.77 %, w/w
- Moisture content of samples ([4]; RH 90% (barium chloride), 192 hours): 14.38 %, w/w
- Form of the powder after admixing deionized water ([5]; 10 g crystal + 0.75 ml water (moisture content 7.0%, w/w)): Lump form
- Form of the powder after admixing deionized water ([5]; 10 g crystal + 1.00 ml water (moisture content 9.1%, w/w)): Cake form
- Form of the powder after admixing deionized water ([5]; 10 g crystal + 1.25 ml water (moisture content 11.1%, w/w)): Paste form
- (Appearance) [6, 8]: (Clear solution)
- Condition [6, 8]: Not solidified
- Time of solidification completed [6, 9]: Not solidified
- Time of solidification started [6, 9]: Not solidified
- (Appearance) [6, 10]: (Clear solution)
- Condition [6, 10]: Not solidified
- Time of solidification completed [6, 11]: Not solidified
- Time of solidification started [6, 11]: Not solidified
- (Appearance) [6, 12]: (Clouded solution)
- Condition [6, 12]: Not solidified
- Time of solidification completed [6, 13]: Not solidified
- Time of solidification started [6, 13]: Not solidified
- Condition ([6]; 18.8 g dissolved in 10 g deionized water (65.0%)): Solidified
- Time of solidification completed [6, 14]: Not solidified
- Time of solidification started [6, 14]: Not solidified
